Results from ChEMBL document CHEMBL4507319 (2021).

Tests used:
Details in all cases: Compound concentration 1000.0 nM
[1] = target: T1, Serine/threonine-protein kinase D1 (Homo sapiens) (UniProt Q15139)
T1 sequence (whole entry): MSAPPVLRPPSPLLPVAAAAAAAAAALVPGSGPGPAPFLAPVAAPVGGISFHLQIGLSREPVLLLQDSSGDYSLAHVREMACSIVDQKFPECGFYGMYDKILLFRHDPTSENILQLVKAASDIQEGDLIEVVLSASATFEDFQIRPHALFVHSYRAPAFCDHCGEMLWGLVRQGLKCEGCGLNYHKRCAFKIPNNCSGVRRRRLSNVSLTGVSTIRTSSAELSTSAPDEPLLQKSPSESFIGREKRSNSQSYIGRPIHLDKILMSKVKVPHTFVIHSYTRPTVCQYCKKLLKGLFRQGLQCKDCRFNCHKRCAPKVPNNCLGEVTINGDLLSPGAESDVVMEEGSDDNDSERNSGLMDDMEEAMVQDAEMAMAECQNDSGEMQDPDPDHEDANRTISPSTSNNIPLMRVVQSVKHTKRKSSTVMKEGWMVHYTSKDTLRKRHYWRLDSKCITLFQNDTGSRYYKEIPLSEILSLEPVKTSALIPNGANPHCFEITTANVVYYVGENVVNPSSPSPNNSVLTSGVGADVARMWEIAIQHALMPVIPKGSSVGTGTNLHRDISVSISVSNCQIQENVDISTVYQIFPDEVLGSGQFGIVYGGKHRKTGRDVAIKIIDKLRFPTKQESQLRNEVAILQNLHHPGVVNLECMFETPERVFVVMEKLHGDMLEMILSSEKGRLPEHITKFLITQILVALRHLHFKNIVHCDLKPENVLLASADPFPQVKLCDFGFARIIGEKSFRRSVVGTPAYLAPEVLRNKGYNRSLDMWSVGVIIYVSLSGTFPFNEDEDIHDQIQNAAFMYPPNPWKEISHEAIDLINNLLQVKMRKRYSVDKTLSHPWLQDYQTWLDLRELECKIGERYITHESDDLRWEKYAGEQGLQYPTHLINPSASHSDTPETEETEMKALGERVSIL

[2] = target: Ribosomal protein S6 kinase alpha-1 (Homo sapiens, UniProt Q15418)
[3] = target: Mitogen-activated protein kinase kinase kinase 14 (Homo sapiens) (UniProt Q99558)
[4] = target: Proto-oncogene tyrosine-protein kinase receptor Ret (Homo sapiens) (UniProt P07949)
[5] = target: Serine/threonine-protein kinase 26 (Homo sapiens) (UniProt Q9P289)
[6] = target: Dual specificity mitogen-activated protein kinase kinase 2 (Homo sapiens) (UniProt P36507)
[7] = target: Serine/threonine-protein kinase MRCK beta (Homo sapiens) (UniProt Q9Y5S2)
[8] = target: TRAF2 and NCK-interacting protein kinase (Homo sapiens) (UniProt Q9UKE5)
[9] = target: T2, Testis-specific serine/threonine-protein kinase 1 (Homo sapiens) (UniProt Q9BXA7)
T2 sequence (whole entry): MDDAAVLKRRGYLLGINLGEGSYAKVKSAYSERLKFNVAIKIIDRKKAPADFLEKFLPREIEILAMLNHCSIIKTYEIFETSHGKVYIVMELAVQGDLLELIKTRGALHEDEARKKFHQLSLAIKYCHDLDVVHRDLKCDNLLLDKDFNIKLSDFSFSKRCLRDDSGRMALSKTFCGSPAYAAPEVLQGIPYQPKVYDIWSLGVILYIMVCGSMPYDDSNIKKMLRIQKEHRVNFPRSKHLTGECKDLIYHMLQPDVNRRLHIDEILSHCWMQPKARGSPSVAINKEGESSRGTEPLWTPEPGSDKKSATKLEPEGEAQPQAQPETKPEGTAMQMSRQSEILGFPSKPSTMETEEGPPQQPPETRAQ

[10] = system: Proto-oncogene tyrosine-protein kinase receptor Ret (Homo sapiens), P07949 [V804M]
[11] = target: T3, Interleukin-1 receptor-associated kinase 4 (Homo sapiens) (UniProt Q9NWZ3)
T3 sequence (whole entry): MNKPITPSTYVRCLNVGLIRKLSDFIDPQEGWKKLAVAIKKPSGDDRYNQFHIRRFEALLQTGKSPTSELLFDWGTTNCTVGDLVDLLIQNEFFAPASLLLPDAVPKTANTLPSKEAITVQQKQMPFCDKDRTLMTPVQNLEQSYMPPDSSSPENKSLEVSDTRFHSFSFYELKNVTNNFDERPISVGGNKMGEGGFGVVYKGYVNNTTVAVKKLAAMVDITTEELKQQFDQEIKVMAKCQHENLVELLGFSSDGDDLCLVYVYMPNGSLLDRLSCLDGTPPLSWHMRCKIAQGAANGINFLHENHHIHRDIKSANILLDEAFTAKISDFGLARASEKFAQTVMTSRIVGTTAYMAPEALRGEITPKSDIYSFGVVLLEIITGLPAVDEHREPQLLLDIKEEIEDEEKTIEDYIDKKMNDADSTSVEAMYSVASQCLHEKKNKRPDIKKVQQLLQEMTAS

[12] = target: Maternal embryonic leucine zipper kinase (Homo sapiens) (UniProt Q14680)
[13] = target: Tyrosine-protein kinase Blk (Homo sapiens) (UniProt P51451)
[14] = target: Tyrosine-protein kinase CSK (Homo sapiens) (UniProt P41240)
[15] = target: Protein-tyrosine kinase 6 (Homo sapiens) (UniProt Q13882)
[16] = target: Casein kinase II subunit alpha' (Homo sapiens) (UniProt P19784)
[17] = target: Serine/threonine-protein kinase WNK4 (Homo sapiens) (UniProt Q96J92)

Sequence of Tyrosine-protein kinase CSK (Homo sapiens) (P41240 2-450 limits assumed): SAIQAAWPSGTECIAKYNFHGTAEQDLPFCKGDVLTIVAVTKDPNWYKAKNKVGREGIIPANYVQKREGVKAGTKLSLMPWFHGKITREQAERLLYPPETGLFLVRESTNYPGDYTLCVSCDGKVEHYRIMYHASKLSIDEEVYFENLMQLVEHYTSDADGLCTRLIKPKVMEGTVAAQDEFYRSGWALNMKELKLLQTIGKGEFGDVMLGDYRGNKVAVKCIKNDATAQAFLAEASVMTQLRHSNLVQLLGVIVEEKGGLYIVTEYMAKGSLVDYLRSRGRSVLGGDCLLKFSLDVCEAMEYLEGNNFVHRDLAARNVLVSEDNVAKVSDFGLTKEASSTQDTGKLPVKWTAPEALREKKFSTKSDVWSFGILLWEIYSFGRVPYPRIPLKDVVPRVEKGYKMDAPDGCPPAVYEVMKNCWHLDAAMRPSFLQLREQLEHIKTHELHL
Sequence of Proto-oncogene tyrosine-protein kinase receptor Ret (Homo sapiens) (P07949 whole entry): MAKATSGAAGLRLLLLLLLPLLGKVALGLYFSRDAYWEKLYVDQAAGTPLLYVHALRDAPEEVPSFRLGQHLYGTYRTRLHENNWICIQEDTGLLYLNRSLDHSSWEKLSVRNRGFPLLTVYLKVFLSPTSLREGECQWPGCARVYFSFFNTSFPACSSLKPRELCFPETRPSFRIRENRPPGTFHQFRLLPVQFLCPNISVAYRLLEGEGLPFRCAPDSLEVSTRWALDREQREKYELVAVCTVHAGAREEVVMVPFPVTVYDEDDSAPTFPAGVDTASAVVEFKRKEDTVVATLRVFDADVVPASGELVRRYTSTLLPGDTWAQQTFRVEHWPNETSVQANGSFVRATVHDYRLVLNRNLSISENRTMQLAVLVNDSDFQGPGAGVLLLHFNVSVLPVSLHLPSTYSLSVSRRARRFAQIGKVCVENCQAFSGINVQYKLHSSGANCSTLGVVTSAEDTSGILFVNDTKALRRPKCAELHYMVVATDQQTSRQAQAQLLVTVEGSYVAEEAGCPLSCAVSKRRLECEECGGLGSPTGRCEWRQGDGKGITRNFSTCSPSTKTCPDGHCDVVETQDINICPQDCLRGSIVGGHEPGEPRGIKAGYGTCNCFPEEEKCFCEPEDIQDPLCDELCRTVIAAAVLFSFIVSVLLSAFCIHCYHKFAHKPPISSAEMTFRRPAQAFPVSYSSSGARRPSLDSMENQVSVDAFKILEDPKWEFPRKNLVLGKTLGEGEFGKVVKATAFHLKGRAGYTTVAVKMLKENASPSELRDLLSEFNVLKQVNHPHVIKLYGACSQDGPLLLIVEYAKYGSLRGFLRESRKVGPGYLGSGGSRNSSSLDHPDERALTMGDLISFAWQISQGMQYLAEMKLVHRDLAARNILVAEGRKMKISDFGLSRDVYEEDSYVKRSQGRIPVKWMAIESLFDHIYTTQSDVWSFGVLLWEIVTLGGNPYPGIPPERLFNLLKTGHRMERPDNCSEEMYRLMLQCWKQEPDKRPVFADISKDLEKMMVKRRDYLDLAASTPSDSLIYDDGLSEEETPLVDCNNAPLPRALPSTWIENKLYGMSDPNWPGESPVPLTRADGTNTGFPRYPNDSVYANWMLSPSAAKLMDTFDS
Sequence of Dual specificity mitogen-activated protein kinase kinase 2 (Homo sapiens) (P36507 whole entry): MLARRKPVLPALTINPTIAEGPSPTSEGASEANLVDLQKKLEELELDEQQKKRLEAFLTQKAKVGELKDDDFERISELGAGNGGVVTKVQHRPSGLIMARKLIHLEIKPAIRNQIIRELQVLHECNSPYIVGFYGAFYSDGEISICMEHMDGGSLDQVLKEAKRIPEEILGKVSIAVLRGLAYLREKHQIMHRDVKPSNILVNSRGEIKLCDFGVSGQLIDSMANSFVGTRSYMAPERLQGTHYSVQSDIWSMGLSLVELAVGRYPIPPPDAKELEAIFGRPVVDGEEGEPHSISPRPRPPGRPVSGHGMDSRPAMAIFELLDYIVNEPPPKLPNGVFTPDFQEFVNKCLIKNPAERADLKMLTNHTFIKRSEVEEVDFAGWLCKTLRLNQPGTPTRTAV
Sequence of TRAF2 and NCK-interacting protein kinase (Homo sapiens) (Q9UKE5 whole entry, looked up): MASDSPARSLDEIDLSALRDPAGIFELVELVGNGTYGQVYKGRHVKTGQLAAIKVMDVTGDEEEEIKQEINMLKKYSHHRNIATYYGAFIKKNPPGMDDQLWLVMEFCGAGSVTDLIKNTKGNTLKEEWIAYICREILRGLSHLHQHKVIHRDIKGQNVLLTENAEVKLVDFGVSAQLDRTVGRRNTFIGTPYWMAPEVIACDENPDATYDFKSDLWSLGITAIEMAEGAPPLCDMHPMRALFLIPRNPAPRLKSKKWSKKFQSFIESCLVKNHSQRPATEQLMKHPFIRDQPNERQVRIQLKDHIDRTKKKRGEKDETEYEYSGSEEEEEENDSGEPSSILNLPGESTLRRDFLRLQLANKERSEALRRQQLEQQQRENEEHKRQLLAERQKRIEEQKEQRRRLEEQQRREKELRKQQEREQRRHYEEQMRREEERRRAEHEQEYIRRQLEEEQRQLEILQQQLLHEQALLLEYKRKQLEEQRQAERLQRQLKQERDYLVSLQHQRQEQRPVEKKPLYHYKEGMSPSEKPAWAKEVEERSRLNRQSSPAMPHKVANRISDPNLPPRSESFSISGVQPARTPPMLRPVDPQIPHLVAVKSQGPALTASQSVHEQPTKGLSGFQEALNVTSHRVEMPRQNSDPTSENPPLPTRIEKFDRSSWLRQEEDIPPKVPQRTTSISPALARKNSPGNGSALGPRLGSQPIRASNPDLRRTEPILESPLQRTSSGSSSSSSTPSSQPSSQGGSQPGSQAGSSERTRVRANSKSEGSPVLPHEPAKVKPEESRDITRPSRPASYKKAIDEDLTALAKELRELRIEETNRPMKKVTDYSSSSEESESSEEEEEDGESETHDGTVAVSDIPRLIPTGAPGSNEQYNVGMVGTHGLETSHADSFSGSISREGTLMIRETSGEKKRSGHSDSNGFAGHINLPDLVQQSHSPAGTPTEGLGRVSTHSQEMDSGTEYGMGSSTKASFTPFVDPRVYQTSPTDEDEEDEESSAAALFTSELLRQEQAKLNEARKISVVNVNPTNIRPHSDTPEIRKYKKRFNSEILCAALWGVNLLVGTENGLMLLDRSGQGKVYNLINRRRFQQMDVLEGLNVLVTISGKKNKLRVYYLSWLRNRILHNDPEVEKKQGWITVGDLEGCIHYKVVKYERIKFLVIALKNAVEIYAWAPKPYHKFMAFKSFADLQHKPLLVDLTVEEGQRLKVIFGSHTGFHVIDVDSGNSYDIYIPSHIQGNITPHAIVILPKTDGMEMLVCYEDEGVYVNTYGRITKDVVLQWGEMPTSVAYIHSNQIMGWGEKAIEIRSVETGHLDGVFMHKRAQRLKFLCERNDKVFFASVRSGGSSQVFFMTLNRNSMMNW
Sequence of Mitogen-activated protein kinase kinase kinase 14 (Homo sapiens) (Q99558 whole entry, looked up): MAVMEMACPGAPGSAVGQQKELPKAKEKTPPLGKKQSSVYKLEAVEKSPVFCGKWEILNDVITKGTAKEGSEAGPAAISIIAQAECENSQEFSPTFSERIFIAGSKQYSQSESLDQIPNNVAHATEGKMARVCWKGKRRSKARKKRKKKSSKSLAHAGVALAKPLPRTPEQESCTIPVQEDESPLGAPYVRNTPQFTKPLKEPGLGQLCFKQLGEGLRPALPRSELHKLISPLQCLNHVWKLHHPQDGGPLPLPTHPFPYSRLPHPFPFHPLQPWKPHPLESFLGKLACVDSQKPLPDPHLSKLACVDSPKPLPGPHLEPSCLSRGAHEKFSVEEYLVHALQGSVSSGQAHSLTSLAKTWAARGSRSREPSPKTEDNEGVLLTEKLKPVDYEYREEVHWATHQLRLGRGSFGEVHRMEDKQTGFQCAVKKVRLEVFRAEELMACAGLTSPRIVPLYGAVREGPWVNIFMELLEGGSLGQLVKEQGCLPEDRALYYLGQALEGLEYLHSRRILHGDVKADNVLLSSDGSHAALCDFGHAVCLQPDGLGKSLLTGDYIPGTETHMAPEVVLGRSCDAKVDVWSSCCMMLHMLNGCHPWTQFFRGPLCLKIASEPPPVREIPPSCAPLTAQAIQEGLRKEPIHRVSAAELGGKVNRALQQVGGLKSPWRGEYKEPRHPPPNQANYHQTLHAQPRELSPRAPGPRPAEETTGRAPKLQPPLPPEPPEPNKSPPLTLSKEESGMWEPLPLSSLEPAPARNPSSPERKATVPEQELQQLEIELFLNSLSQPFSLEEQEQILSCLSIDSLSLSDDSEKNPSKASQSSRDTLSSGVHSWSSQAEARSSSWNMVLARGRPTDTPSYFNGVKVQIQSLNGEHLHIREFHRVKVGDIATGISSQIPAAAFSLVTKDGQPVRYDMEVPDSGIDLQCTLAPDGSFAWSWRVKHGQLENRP
Sequence of Casein kinase II subunit alpha' (Homo sapiens) (P19784 whole entry, looked up): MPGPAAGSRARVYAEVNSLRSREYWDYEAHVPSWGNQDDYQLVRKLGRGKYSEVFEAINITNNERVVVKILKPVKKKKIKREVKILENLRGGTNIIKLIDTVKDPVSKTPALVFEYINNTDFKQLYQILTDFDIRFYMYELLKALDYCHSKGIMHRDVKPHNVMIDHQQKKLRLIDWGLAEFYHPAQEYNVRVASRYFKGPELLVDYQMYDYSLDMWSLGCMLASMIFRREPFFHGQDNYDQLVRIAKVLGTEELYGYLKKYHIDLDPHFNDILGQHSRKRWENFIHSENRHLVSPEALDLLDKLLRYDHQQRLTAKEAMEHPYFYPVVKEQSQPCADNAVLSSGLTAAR
Sequence of Serine/threonine-protein kinase 26 (Homo sapiens) (Q9P289 2-416 limits assumed): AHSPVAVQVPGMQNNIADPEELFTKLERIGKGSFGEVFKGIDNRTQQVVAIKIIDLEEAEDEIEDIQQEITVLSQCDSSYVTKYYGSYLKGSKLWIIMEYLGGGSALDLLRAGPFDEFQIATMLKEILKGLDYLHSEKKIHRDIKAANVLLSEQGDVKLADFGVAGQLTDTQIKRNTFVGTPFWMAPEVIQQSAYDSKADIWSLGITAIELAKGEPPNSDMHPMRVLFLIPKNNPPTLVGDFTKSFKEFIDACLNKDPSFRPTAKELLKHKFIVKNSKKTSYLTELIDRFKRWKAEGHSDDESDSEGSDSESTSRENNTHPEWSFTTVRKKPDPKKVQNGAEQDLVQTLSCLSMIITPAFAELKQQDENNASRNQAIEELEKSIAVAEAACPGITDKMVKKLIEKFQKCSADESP

SMILES	residual activity [1] [%]	residual activity [2] [%]	residual activity [3] [%]	residual activity [4] [%]	residual activity [5] [%]	residual activity [6] [%]	residual activity [7] [%]	residual activity [8] [%]	residual activity [9] [%]	residual activity [10] [%]	residual activity [11] [%]	residual activity [12] [%]	residual activity [13] [%]	residual activity [14] [%]	residual activity [15] [%]	residual activity [16] [%]	residual activity [17] [%]
CC1=C(C#N)C(c2ccc3c(c2)c(NC(=O)c2ccccc2C)nn3C)C(C#N)=C(C)N1 [BAY-974]	92	100	69	97	100	82	100	98	100	91	7.5	81	82	85	100	100	95
CCc1ccccc1C(=O)Nc1n[nH]c2c(C)c(F)c(C3C(C#N)=C(C)N(C)C(C)=C3C#N)cc12 [BAY-3827]	100	1.8	75	65	98	100	100	78	95	11	100	43	100	98	100	100	94
